Source: patent publication US10934298B2, “Substituted pyrazolo[1,5-a]pyrimidines for the treatment of medical disorders” (BIAL—BioTech Investments, Inc., priority 2016, dated 2021)

Biological target: T1, glucocerebrosidase (Gcase) (Homo sapiens, UniProt P04062)
T1 construct: micellar solution containing 10 nM GCase and 100 nM saposin C
T1 sequence (P04062 40-536): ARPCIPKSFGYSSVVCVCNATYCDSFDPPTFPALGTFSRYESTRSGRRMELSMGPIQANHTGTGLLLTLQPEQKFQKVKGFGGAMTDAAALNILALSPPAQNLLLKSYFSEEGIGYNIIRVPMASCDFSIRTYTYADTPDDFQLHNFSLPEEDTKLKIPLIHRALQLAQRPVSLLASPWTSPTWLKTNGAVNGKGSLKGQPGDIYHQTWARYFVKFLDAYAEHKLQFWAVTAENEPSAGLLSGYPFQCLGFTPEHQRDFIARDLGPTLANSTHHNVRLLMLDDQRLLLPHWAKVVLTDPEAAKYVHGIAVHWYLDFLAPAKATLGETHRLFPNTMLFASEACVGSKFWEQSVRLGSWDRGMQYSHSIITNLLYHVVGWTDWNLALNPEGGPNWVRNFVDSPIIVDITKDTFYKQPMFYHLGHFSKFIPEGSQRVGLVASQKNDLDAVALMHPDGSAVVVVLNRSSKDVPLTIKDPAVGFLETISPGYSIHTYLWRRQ
Assay: Glucocerebrosidase (Gcase) activation assay with 4-methylumbelliferyl-beta-D-glucopyranoside substrate, saposin C and phosphatidylserine/triton micelles, fluorescence readout
Format: biochemical
Conditions: for Percent Gcase Activation, 0.1 μM Test Compound: test compound at 0.1 μM; for Percent Gcase Activation, 1 μM Test Compound: test compound at 1.0 μM
Summary of the method: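 Fluorescence (ex 365 nm, em 440 nm) read after glycine pH 12.5 stop of a 15 min room-temperature reaction. GCase 10 nM plus saposin C 100 nM in PS/triton micelles, pH 4.7, preincubated 30 min with compound; substrate solution held 2 mM 4-MU-beta-glucoside. Screened at 1.0 and 0.1 μM; 8-point, 3-fold curves from 5 μM top.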

Percent Gcase Activation, 0.1 μM Test Compound | Percent Gcase Activation, 1 μM Test Compound | Compound
* (less than 10% Gcase activation) | + (less than 30% Gcase activation) | Cc1cc(-c2cccc(-c3ncc[nH]3)c2)nc2c(C(=O)NC(C3CC3)C(F)(F)F)cnn12 (centres unmarked) [III-102]
*** (greater than 20% Gcase activation) | +++ (Gcase activation greater than 60%) | Cc1cc(-c2cccc3ncoc23)nc2c(C(=O)NC(C3CC3)C(F)(F)F)cnn12 (centres unmarked) [III-104]
*** (greater than 20% Gcase activation) | +++ (Gcase activation greater than 60%) | Cc1cc(-c2ccc3ocnc3c2)nc2c(C(=O)NC(C3CC3)C(F)(F)F)cnn12 (centres unmarked) [III-108]
*** (greater than 20% Gcase activation) | +++ (Gcase activation greater than 60%) | Cc1cc(-c2ccc3ocnc3c2)nc2c(C(=O)N[C@H](C3CC3)C(F)(F)F)cnn12 [III-109]
*** (greater than 20% Gcase activation) | +++ (Gcase activation greater than 60%) | Cc1cc(-c2ccc3ocnc3c2)nc2c(C(=O)N[C@@H](C3CC3)C(F)(F)F)cnn12 [III-110]
*** (greater than 20% Gcase activation) | +++ (Gcase activation greater than 60%) | Cc1cc(-c2cccc(F)c2)nc2c(C(=O)NC(C3CC3)C(F)(F)F)cnn12 (centres unmarked) [III-111]
*** (greater than 20% Gcase activation) | +++ (Gcase activation greater than 60%) | Cc1cc(-c2ccc(F)nc2)nc2c(C(=O)NC(C3CC3)C(F)(F)F)cnn12 (centres unmarked) [III-112]
*** (greater than 20% Gcase activation) | +++ (Gcase activation greater than 60%) | Cc1cc(-c2ccc(Cl)nc2)nc2c(C(=O)NC(C3CC3)C(F)(F)F)cnn12 (centres unmarked) [III-116]
*** (greater than 20% Gcase activation) | +++ (Gcase activation greater than 60%) | Cc1cc(-c2ccc(Cl)nc2)nc2c(C(=O)N[C@H](C3CC3)C(F)(F)F)cnn12 [III-117]
*** (greater than 20% Gcase activation) | +++ (Gcase activation greater than 60%) | Cc1cc(-c2cncc(F)c2)nc2c(C(=O)N[C@H](C3CC3)C(F)(F)F)cnn12 [III-126]
*** (greater than 20% Gcase activation) | +++ (Gcase activation greater than 60%) | Cc1cc(-c2cncc(F)c2)nc2c(C(=O)N[C@@H](C3CC3)C(F)(F)F)cnn12 [III-127]

Continued, compound first:

Compound | Percent Gcase Activation, 0.1 μM Test Compound | Percent Gcase Activation, 1 μM Test Compound
Cc1cc(-c2cccc(Oc3ncccn3)c2)nc2c(C(=O)NC(C3CC3)C(F)(F)F)cnn12 (centres unmarked) [III-103] | * (less than 10% Gcase activation) | +++ (Gcase activation greater than 60%)
Cc1cc(-c2cccc3ocnc23)nc2c(C(=O)NC(C3CC3)C(F)(F)F)cnn12 (centres unmarked) [III-106] | *** (greater than 20% Gcase activation) | ++ (Gcase activation in the range of 30% up to 60%)
Cc1cc(-n2ccc(Cl)n2)nc2c(C(=O)NC(C3CC3)C(F)(F)F)cnn12 (centres unmarked) [III-107] | *** (greater than 20% Gcase activation) | +++ (Gcase activation greater than 60%)
Cc1cc(-c2cccnc2F)nc2c(C(=O)NC(C3CC3)C(F)(F)F)cnn12 (centres unmarked) [III-113] | *** (greater than 20% Gcase activation) | +++ (Gcase activation greater than 60%)
Cc1cc(-c2cccnc2F)nc2c(C(=O)N[C@H](C3CC3)C(F)(F)F)cnn12 [III-114] | *** (greater than 20% Gcase activation) | +++ (Gcase activation greater than 60%)
Cc1cc(-c2cccnc2F)nc2c(C(=O)N[C@@H](C3CC3)C(F)(F)F)cnn12 [III-115] | *** (greater than 20% Gcase activation) | +++ (Gcase activation greater than 60%)
Cc1cc(-c2cncc(Cl)c2)nc2c(C(=O)NC(C3CC3)C(F)(F)F)cnn12 (centres unmarked) [III-119] | *** (greater than 20% Gcase activation) | +++ (Gcase activation greater than 60%)
Cc1cc(-c2cncc(Cl)c2)nc2c(C(=O)N[C@H](C3CC3)C(F)(F)F)cnn12 [III-120] | *** (greater than 20% Gcase activation) | +++ (Gcase activation greater than 60%)
Cc1cc(-c2cncc(Cl)c2)nc2c(C(=O)N[C@@H](C3CC3)C(F)(F)F)cnn12 [III-121] | *** (greater than 20% Gcase activation) | +++ (Gcase activation greater than 60%)
Cc1cc(-c2cnccc2Cl)nc2c(C(=O)NC(C3CC3)C(F)(F)F)cnn12 (centres unmarked) [III-122] | *** (greater than 20% Gcase activation) | +++ (Gcase activation greater than 60%)
Cc1cc(-c2cccnc2Cl)nc2c(C(=O)NC(C3CC3)C(F)(F)F)cnn12 (centres unmarked) [III-123] | ** (Gcase activation in the range of 10% up to 20%) | +++ (Gcase activation greater than 60%)
Cc1cc(-c2cnccc2F)nc2c(C(=O)NC(C3CC3)C(F)(F)F)cnn12 (centres unmarked) [III-124] | *** (greater than 20% Gcase activation) | +++ (Gcase activation greater than 60%)
Cc1cc(-c2cncc(F)c2)nc2c(C(=O)NC(C3CC3)C(F)(F)F)cnn12 (centres unmarked) [III-125] | *** (greater than 20% Gcase activation) | +++ (Gcase activation greater than 60%)
Cc1cc(-c2cc(F)cc(C#N)c2)nc2c(C(=O)N[C@@H](C)C3CC3)cnn12 [III-128] | *** (greater than 20% Gcase activation) | +++ (Gcase activation greater than 60%)
COc1cc(C#N)cc(-c2cc(C)n3ncc(C(=O)N[C@@H](C)C4CC4)c3n2)c1 [III-129] | *** (greater than 20% Gcase activation) | +++ (Gcase activation greater than 60%)
Cc1cc(-c2cccc(Cl)n2)nc2c(C(=O)N[C@@H](C)C3CC3)cnn12 [III-131] | *** (greater than 20% Gcase activation) | +++ (Gcase activation greater than 60%)
Cc1cc(-c2cccc(Cl)n2)nc2c(C(=O)N[C@H](C)C3CC3)cnn12 [III-132] | ** (Gcase activation in the range of 10% up to 20%) | +++ (Gcase activation greater than 60%)
Cc1cc(-c2cccc(C#N)n2)nc2c(C(=O)NC(C3CC3)C(F)(F)F)cnn12 (centres unmarked) [III-133] | ** (Gcase activation in the range of 10% up to 20%) | +++ (Gcase activation greater than 60%)
Cc1cc(-c2cccc(F)n2)nc2c(C(=O)N[C@@H](C)C3CC3)cnn12 [III-134] | ** (Gcase activation in the range of 10% up to 20%) | +++ (Gcase activation greater than 60%)
Cc1cc(-c2cccc(F)n2)nc2c(C(=O)N[C@H](C)C3CC3)cnn12 [III-135] | ** (Gcase activation in the range of 10% up to 20%) | +++ (Gcase activation greater than 60%)
Cc1cc(-c2ccccc2)nc2c(C(=O)N[C@@H](C)C3CC3)cnn12 [III-136] | *** (greater than 20% Gcase activation) | +++ (Gcase activation greater than 60%)
COc1cc(F)cc(-c2cc(C)n3ncc(C(=O)N[C@@H](C)C4CC4)c3n2)c1 [III-137] | *** (greater than 20% Gcase activation) | +++ (Gcase activation greater than 60%)
COc1c(F)cccc1-c1cc(C)n2ncc(C(=O)N[C@@H](C)C3CC3)c2n1 [III-138] | ** (Gcase activation in the range of 10% up to 20%) | +++ (Gcase activation greater than 60%)
COc1c(F)cccc1-c1cc(C)n2ncc(C(=O)NC(C3CC3)C(F)(F)F)c2n1 (centres unmarked) [III-139] | ** (Gcase activation in the range of 10% up to 20%) | +++ (Gcase activation greater than 60%)
COc1c(F)cccc1-c1cc(C)n2ncc(C(=O)NC(C)C(F)(F)F)c2n1 (centres unmarked) [III-140] | ** (Gcase activation in the range of 10% up to 20%) | +++ (Gcase activation greater than 60%)
COc1c(C#N)cccc1-c1cc(C)n2ncc(C(=O)NC(C3CC3)C(F)(F)F)c2n1 (centres unmarked) [III-141] | * (less than 10% Gcase activation) | +++ (Gcase activation greater than 60%)
